# Experimental data: patent publication US20240261440A1, “COMPOSITIONS, METHODS AND USES FOR TREATING CYSTIC FIBROSIS AND RELATED DISORDERS” (The Board of Regents of The University of Texas System, priority 0001, published 2024)
# Test system: C57BL/6 mice
# Assay: In vivo Luc mRNA delivery (IVIS luminescence imaging)
# Design: species or system mouse
# Conditions: 0.1 mg kg-1 Luc mRNA, i.v., 6h; 20% to 50% cationic lipid
# Experimental: C57BL/6 mice with weight at around 20 g were i.v. injected with various Luc mRNA formulations (0.1 mg kg^−1 of Luc mRNA, n=3 per group). After 6 hours, these mice were injected with D-Luciferin (150 mg kg^−1, intraperitoneal) and imaged immediately using an IVIS Lumina system (Perkin Elmer). Afterwards, these mice were killed, and tissues were excised for ex vivo imaging using IVIS Lumina system.
smiles,measurement,value
"CCCCCCCC/C=C\CCCCCCCC(=O)OCC(C[N+](C)(C)C)OC(=O)CCCCCCC/C=C\CCCCCCCC (stereo not shown) [DOTAP, 1,2-dioleoyl-3-trimethylammonium-propane]","luciferase expression in mouse lungs, permanently cationic lipid screen in mDLNP-2",higher luminescence activity than others
